The target of experiment [1] is T1, PIM1 serine/threonine kinase (Homo sapiens, UniProt P11309).
T1 construct: purchased Carna Bioscience, Inc
Description: PIM1 serine/threonine kinase inhibitory effect. The format is biochemical. To be noted: PIM1 serine/threonine kinase activity; ATP 40 μM; 30° C., 30 minutes. The protocol:
Each test substance was prepared to 10 mM with dimethylsulfoxide (DMSO), and further diluted with DMSO so as to have concentrations of 1000, 300, 100, 30, 10, 3, 1, 0.3, 0.1, 0.03, 0.01, and 0.001 μM. Moreover, each dilution was further diluted 33.3-fold with an assay buffer to prepare a test substance solution. The composition of the assay buffer was 50 mM HEPES (pH 7.0), 0.02% NaN3, 0.01% Bovine Serum Albumin, 0.1 mM Orthovanadate, 1 mM Dithiothreitol, and 5 mM MgCl2.
5 μL of each test substance solution was added to 384-well plates (n=2), and then 2.5 μL of a substrate solution (substrate 3-biotin (Cisbio Bioassays SAS), final concentration in the reaction solution: 0.5 μM) and 2.5 μL of an ATP solution (in the cases of PIM1, 2, 3, the final concentrations in the reaction solutions were 40, 2, and 10 μM, respectively) were added, 5 μL of each of PIM1, 2, 3 serine/threonine kinase solutions (Carna Bioscience, Inc., the final concentrations in the reaction solutions were 0.15, 1.6, and 0.25 μg/ml, respectively) was finally added, and the mixture was reacted at 30° C. for 30 minutes. The test substance concentrations in the reaction solutions are 10000, 3000, 1000, 300, 100, 30, 10, 3, 1, 0.3, 0.1, and 0.01 nM.
Thereafter, 15 μL of each detection solution (62.5 nM Streptavidin-XL665 (Cisbio Bioassays SAS), […] STK antibody-Cryptate (Cisbio Bioassays SAS), 50 mM HEPES (pH 7.0), 0.8 M KF, 0.1% Bovine Serum Albumin, 20 mM ethylenediaminetetraacetic acid) was added to each well. After stirring, the mixture was reacted at 30° C. for 1 hour. Absorbance (OD620, OD665) at 620 and 665 nm was measured with a microplate reader (SpectraMax M5e, Molecular Devices, LLC).
Non-linear regression analysis was performed by an SAS system (SAS Institute Inc.) using the ratio (OD665/OD620) of the measured absorbance to calculate a test substance concentration (IC50) that inhibits PIM1 serine/threonine kinase activity by 50%.

Experiment [2] deals with PIM1 transgenic cells (Ba/F3) (Homo sapiens, UniProt P11309). Description: Proliferation inhibitory effect on PIM1 transgenic cells. The format is cell-based, mouse. To be noted: proliferation inhibition, 72 hours, Cell Counting Kit-8, read-out: PIM1 IC50. The text has this:
Human PIM1, 2, and 3 genes were inserted into the multi-cloning sites of retrovirus expression vectors pMYs-IRES-GFP, respectively, to prepare gene transfer vectors. Then, each gene transfer vector was introduced into packaging cells PLAT-E derived from a human fetal kidney cell line in the logarithmic growth phase, using a transfection reagent (FuGENE6, Promega Corporation). Since the culture supernatant of PLAT-E after gene transfer contained virus particles for gene transfer, the culture supernatant was collected and used as a medium for gene transfer. The medium for gene transfer was added to a plate coated with RetroNectin, and the plate was incubated to attach the virus particles to the plate. Then, a mouse pro-B cell line Ba/F3 in the logarithmic growth phase was seeded on the plate and infected with the virus to prepare PIM1, 2, or 3 transgenic cells that proliferate in a PIM 1, 2, or 3-dependent manner. The expression of PIM1, 2, or 3 protein in each cell was confirmed by Western blotting.
Each test substance was prepared to 10 mM with dimethylsulfoxide (DMSO), and diluted with DMSO so as to have concentrations of 3000, 1000, 300, 100, 30, 10, 3, and 1 μM. Moreover, each dilution was further diluted 10-fold with distilled water to prepare a test substance solution.
PIM1, 2, 3-expressing cells were seeded on a 96-well plate, and each test substance solution prepared the next day was added such that final concentrations were 10000, 3000, 1000, 300, 100, 30, 10, 3, and 1 nM. 72 hours after the addition, 10 μL of Cell Counting Kit-8 (DOJINDO LABORATORIES) was added to each well. After incubation for 1 to 4 hours, absorbance OD450 at 450 nm was measured. In addition, absorption OD650 at 650 nm as a reference wavelength was measured.
OD450-OD650 for each condition was calculated, and then the inhibition rates when OD450-OD650 of negative control (DMSO only) and OD450-OD650 of Blank (without cells) were set to 0% and 100%, respectively, were calculated. Then, non-linear regression analysis was performed for logarithmic dose and inhibition rate using a two-parameter logistic model to estimate IC50 values.

Structures can show the parent of a compound that is named as a salt.

Chain of PIM1 transgenic cells (Ba/F3) (P11309 whole entry, stated change not applied): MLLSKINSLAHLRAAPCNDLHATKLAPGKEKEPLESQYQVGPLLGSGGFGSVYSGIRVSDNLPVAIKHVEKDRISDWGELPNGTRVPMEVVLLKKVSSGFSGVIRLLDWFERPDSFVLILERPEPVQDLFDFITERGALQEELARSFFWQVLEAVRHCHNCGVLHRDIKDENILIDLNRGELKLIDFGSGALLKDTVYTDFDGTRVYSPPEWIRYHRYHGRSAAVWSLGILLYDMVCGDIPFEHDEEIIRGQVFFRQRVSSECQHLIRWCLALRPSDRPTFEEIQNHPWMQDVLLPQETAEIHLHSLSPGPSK
T1 sequence (P11309 whole entry): as the sequence (P11309 whole entry, stated change not applied) above

On to `NCCCCNc1cc(-c2n[nH]c(=O)o2)ccc1C(F)(F)F` [Example 1, 5-{3-[(4-aminobutyl)amino]-4-(trifluoromethyl)phenyl}-1,3,4-oxadiazol-2(3H)-one hydrochloride], for which the IC50 in experiment [1] amounted to 15 nM. Besides, in experiment [2], the GI50 was determined as 1900 nM.

The molecule `NCCCCCNc1cc(-c2n[nH]c(=O)o2)ccc1C(F)(F)F` [Example 3, 5-{3-[(5-aminopentyl)amino]-4-(trifluoromethyl)phenyl}-1,3,4-oxadiazol-2(3H)-one hydrochloride] displayed an IC50 in experiment [1] of 11 nM. Further, the GI50 in experiment [2] is 7900 nM.

On to `NCCCCCCNc1cc(-c2n[nH]c(=O)o2)ccc1C(F)(F)F` [Example 4, 5-{3-[(6-aminohexyl)amino]-4-(trifluoromethyl)phenyl}-1,3,4-oxadiazol-2(3H)-one], for which, in experiment [1], 50 nM corresponded to half-maximal inhibition (IC50). Moreover, the GI50 in experiment [2] was found to be 3000 nM.

The molecule `CC(CCCCN)Nc1cc(-c2n[nH]c(=O)o2)ccc1C(F)(F)F` (stereo not shown) [Example 5, 5-{3-[(6-aminohexan-2-yl)amino]-4-(trifluoromethyl)phenyl}-1,3,4-oxadiazol-2(3H)-one hydrochloride] displayed an IC50 in experiment [1] of 11 nM. For the same molecule, in experiment [2], the GI50 stood at 500 nM.

Regarding `NCC1CCN(c2cc(-c3n[nH]c(=O)o3)ccc2Cl)CC1` [Example 6, 5-{3-[4-(aminomethyl)piperidin-1-yl]-4-chlorophenyl}-1,3,4-oxadiazol-2(3H)-one], the IC50 in experiment [1] worked out at 59 nM. In addition, the GI50 in experiment [2] came out at 3600 nM.

In turn, `NCCC1CCN(c2cc(-c3n[nH]c(=O)o3)ccc2C(F)(F)F)CC1` [Example 10, 5-{3-[4-(2-aminoethyl)piperidin-1-yl]-4-(trifluoromethyl)phenyl}-1,3,4-oxadiazol-2(3H)-one hydrochloride] returned an IC50 in experiment [1] of 6.6 nM. In addition, the GI50 in experiment [2] stood at 630 nM.

Take `NCCC1CCCN(c2cc(-c3n[nH]c(=O)o3)ccc2C(F)(F)F)C1` (stereo not shown) [Example 11, 5-{3-[3-(2-aminoethyl)piperidin-1-yl]-4-(trifluoromethyl)phenyl}-1,3,4-oxadiazol-2(3H)-one hydrochloride]: the IC50 in experiment [1] amounted to 13 nM. Further, the GI50 in experiment [2] was determined as 330 nM.

On to `NCCC1CCN(c2cc(-c3n[nH]c(=O)o3)cc3[nH]ncc23)CC1` [Example 12, 5-{4-[4-(2-aminoethyl)piperidin-1-yl]-1H-indazol-6-yl}-1,3,4-oxadiazol-2(3H)-one dihydrochloride], for which the IC50 in experiment [1] came out at 13 nM. Moreover, the GI50 in experiment [2] was determined as 5100 nM.

As to `CC(C)(CN)C1CCN(c2cc(-c3n[nH]c(=O)o3)ccc2C(F)(F)F)CC1` [Example 13, 5-{3-[4-(1-amino-2-methylpropan-2-yl)piperidin-1-yl]-4-(trifluoromethyl)phenyl}-1,3,4-oxadiazol-2(3H)-one], the midpoint of inhibition in experiment [1], the IC50, lay at 30 nM. In addition, the GI50 in experiment [2] is 540 nM.

In experiment [1], `NCC(O)C1CCN(c2cc(-c3n[nH]c(=O)o3)ccc2C(F)(F)F)CC1` (stereo not shown) [Example 14, 5-{3-[4-(2-amino-1-hydroxyethyl)piperidin-1-yl]-4-(trifluoromethyl)phenyl}-1,3,4-oxadiazol-2(3H)-one hydrochloride] registered an IC50 of 12 nM. Also, in experiment [2], the GI50 came to 1300 nM.

In turn, `O=c1[nH]nc(-c2ccc(C(F)(F)F)c(N3CCC4(CCNCC4)CC3)c2)o1` [Example 15, 5-[3-(3,9-diazaspiro[5.5]undecan-3-yl)-4-(trifluoromethyl)phenyl]-1,3,4-oxadiazol-2(3H)-one hydrochloride] came in with an IC50 in experiment [1] of 15 nM. For the same molecule, in experiment [2], the GI50 was 600 nM.

With `O=c1[nH]nc(-c2ccc(C(F)(F)F)c(N3CCC4(CC3)CNC4)c2)o1` [Example 16, 5-[3-(2,7-diazaspiro[3.5]nonan-7-yl)-4-(trifluoromethyl)phenyl]-1,3,4-oxadiazol-2(3H)-one hydrochloride], it took 53 nM to reach half-maximal inhibition in experiment [1] (IC50). Besides, in experiment [2], the GI50 came to 2400 nM.

In experiment [1], `NCc1ccc(-c2cc(-c3n[nH]c(=O)o3)ccc2C(F)(F)F)cc1` [Example 20, 5-[4′-(aminomethyl)-6-(trifluoromethyl)[1,1′-biphenyl]-3-yl]-1,3,4-oxadiazol-2(3H)-one hydrochloride] yielded a concentration for half-maximal inhibition (IC50) of 33 nM. Also, the GI50 in experiment [2] stood at 4500 nM.

For `NCCc1ccc(-c2cc(-c3n[nH]c(=O)o3)ccc2C(F)(F)F)cc1` [Example 22, 5-[4′-(2-aminoethyl)-6-(trifluoromethyl)[1,1′-biphenyl]-3-yl]-1,3,4-oxadiazol-2(3H)-one hydrochloride], the IC50 in experiment [1] came out at 27 nM. In experiment [2], the GI50 worked out at 2200 nM.

In experiment [1], `C[C@@H](CN)Oc1ccc(-c2cc(-c3n[nH]c(=O)o3)ccc2C(F)(F)F)cc1` [Example 24, 5-[4′-{[(2S)-1-aminopropan-2-yl]oxy}-6-(trifluoromethyl)[1,1′-biphenyl]-3-yl]-1,3,4-oxadiazol-2(3H)-one hydrochloride] had an IC50 of 39 nM. The GI50 in experiment [2] was found to be 870 nM.

`O=c1[nH]nc(-c2ccc(C(F)(F)F)c(CCC3CCNCC3)c2)o1` [Example 26, 5-{3-[2-(piperidin-4-yl)ethyl]-4-(trifluoromethyl)phenyl}-1,3,4-oxadiazol-2(3H)-one hydrochloride] registered an IC50 in experiment [1] of 12 nM. For the same molecule, in experiment [2], the GI50 was 910 nM.

In turn, `N[C@H]1CC[C@H](CCc2cc(-c3n[nH]c(=O)o3)ccc2C(F)(F)F)CC1` [Example 27, 5-[3-{2-[(1r,4s)-4-aminocyclohexyl]ethyl}-4-(trifluoromethyl)phenyl]-1,3,4-oxadiazol-2(3H)-one hydrochloride] came in with an IC50 in experiment [1] of 4.1 nM. For the same molecule, the GI50 in experiment [2] was determined as 200 nM.

Molecule `N[C@H]1CO[C@H](CCc2cc(-c3n[nH]c(=O)o3)ccc2C(F)(F)F)OC1` [Example 28, 5-[3-{2-[(2r,5r)-5-amino-1,3-dioxan-2-yl]ethyl}-4-(trifluoromethyl)phenyl]-1,3,4-oxadiazol-2(3H)-one hydrochloride] returned an IC50 in experiment [1] of 38 nM. In addition, the GI50 in experiment [2] is 3500 nM.

`O=c1[nH]nc(-c2ccc(C(F)(F)F)c(C#CC3CCNCC3)c2)o1` [Example 29, 5-{3-[(piperidin-4-yl)ethynyl]-4-(trifluoromethyl)phenyl}-1,3,4-oxadiazol-2(3H)-one hydrochloride] registered an IC50 in experiment [1] of 18 nM. In addition, in experiment [2], the GI50 is 1100 nM.

Molecule `O=c1[nH]nc(-c2ccc(C(F)(F)F)c(/C=C/C3CCNCC3)c2)o1` [Example 30, 5-{3-[(E)-2-(piperidin-4-yl)ethenyl]-4-(trifluoromethyl)phenyl}-1,3,4-oxadiazol-2(3H)-one hydrochloride] gave an IC50 in experiment [1] of 24 nM. Moreover, the GI50 in experiment [2] was found to be 970 nM.

`O=c1[nH]nc(-c2ccc(Cl)c(NC3CCNCC3)c2)o1` [Example 31, 5-{4-chloro-3-[(piperidin-4-yl)amino]phenyl}-1,3,4-oxadiazol-2(3H)-one hydrochloride] had an IC50 in experiment [1] of 70 nM. Also, the GI50 in experiment [2] came out at 3300 nM.

On to `C[C@H](Nc1cc(-c2n[nH]c(=O)o2)ccc1C(F)(F)F)C12CC(N)(C1)C2` [Example 185, 5-[3-{[(1S)-1-(3-aminobicyclo[1.1.1]pentan-1-yl)ethyl]amino}-4-(trifluoromethyl)phenyl]-1,3,4-oxadiazol-2(3H)-one], for which the GI50 in experiment [2] is 87 nM.

(Values after patent US20220024921A1, “1,3,4-OXADIAZOLONE COMPOUND AND PHARMACEUTICAL” (NIPPON SHINYAKU CO., LTD., priority 2018, published 2022).)
